For experiment [1], the system named is Methicillin-resistant Staphylococcus aureus OC 3726 COL. Nature of the experiment: MIC, microdilution broth method (NCCLS), strain B. The settings on record: read-out: MIC B Strain. In general terms: Dilution methods test growth across graded concentrations, often in twofold steps.
Protocol: (§1) The in vitro antimicrobial activity of representative compounds of the present invention was determined by the microdilution broth method following the test method from the National Committee for Clinical Laboratory Standards (NCCLS).
(§2) In this method two-fold serial dilutions of drug in cation adjusted Mueller-Hinton broth were added to wells in microdilution trays. The test organisms were prepared by adjusting the turbidity of actively growing broth cultures so that the final concentration of test organism after it is added to the wells was approximately 5×10^4 CFU/well. Following inoculation of the microdilution trays, the trays were incubated at 35° C. for 16-20 hours and then read. The amount of growth in the wells containing the test compound was compared with the amount of growth in the growth-control wells (no test compound) used in each tray.
The test system of experiment [2] is Staphylococcus aureus OC4172. The experiment in a line: MIC, microdilution broth method (NCCLS), strain C. Type of experiment: cell-based. The settings on record: cation adjusted Mueller-Hinton broth, 35° C., 16-20 hours.
The subject of experiment [3] is Methicillin-resistant Staphylococcus aureus OC 2878. The experiment in a line: MIC, microdilution broth method (NCCLS), strain D. As to conditions: read-out: MIC D Strain.
Protocol: as §1, §2
For experiment [4], the system named is Enterococcus faecium OC 3312 vancomycin resistant. Nature of the experiment: MIC, microdilution broth method (NCCLS), strain A. As to conditions: read-out: MIC A Strain.
Protocol: as §1, §2

≈ marks a conversion by molar mass, not a printed value.

`CO[C@H]1/C=C/O[C@@]2(C)Oc3c(C)c(O)c4c(O)c(c([C@H](O)C[N+](=O)[O-])c(O)c4c3C2=O)NC(=O)/C(C)=C\C=C\[C@H](C)[C@H](O)[C@@H](C)[C@@H](O)[C@@H](C)[C@H](OC(C)=O)[C@@H]1C` (single isomer, unassigned) [Compound 5]: the MIC in experiment [1], in experiment [2], in experiment [3] and in experiment [4] was 8 µg/mL (≈ 10.2 µM) throughout.
On to `CO[C@H]1/C=C/O[C@@]2(C)Oc3c(C)c(O)c4c(c3C2=O)C(=O)C(CC[N+](=O)[O-])=C(NC(=O)/C(C)=C\C=C\[C@H](C)[C@H](O)[C@@H](C)[C@@H](O)[C@@H](C)[C@H](OC(C)=O)[C@@H]1C)C4=O` [Compound 1], for which the MIC was at most 0.03 µg/mL in experiment [1], at most 0.03 µg/mL in experiment [2], at most 0.03 µg/mL in experiment [3] and 0.12 µg/mL (≈ 0.156 µM) in experiment [4].
In the case of `CO[C@H]1/C=C/O[C@@]2(C)Oc3c(C)c(O)c4c(O)c(c(CC[N+](=O)[O-])c(O)c4c3C2=O)NC(=O)/C(C)=C\C=C\[C@H](C)[C@H](O)[C@@H](C)[C@@H](O)[C@@H](C)[C@H](OC(C)=O)[C@@H]1C` [Compound 2], the MIC in experiment [1] is at most 0.03 µg/mL; in experiment [2], at most 0.03 µg/mL; in experiment [3], at most 0.03 µg/mL; in experiment [4], 1 µg/mL (≈ 1.3 µM).
With `CO[C@H]1/C=C/O[C@@]2(C)Oc3c(C)c(O)c4c(O)c(c(C(C[N+](=O)[O-])C[N+](=O)[O-])c(O)c4c3C2=O)NC(=O)/C(C)=C\C=C\[C@H](C)[C@H](O)[C@@H](C)[C@@H](O)[C@@H](C)[C@H](OC(C)=O)[C@@H]1C` [Compound 3], the MIC in experiment [1] was determined as 0.5 µg/mL (≈ 0.603 µM); in experiment [2] it was 0.25 µg/mL (≈ 0.301 µM); in experiment [3] it was 0.25 µg/mL (≈ 0.301 µM); in experiment [4], 4 µg/mL (≈ 4.82 µM).
As to `CO[C@H]1/C=C/O[C@@]2(C)Oc3c(C)c(O)c4c(c3C2=O)C(=O)C(C(C[N+](=O)[O-])C[N+](=O)[O-])=C(NC(=O)/C(C)=C\C=C\[C@H](C)[C@H](O)[C@@H](C)[C@@H](O)[C@@H](C)[C@H](OC(C)=O)[C@@H]1C)C4=O` [Compound 4], the MIC is 1 µg/mL (≈ 1.21 µM) in experiment [1], 0.5 µg/mL (≈ 0.604 µM) in experiment [2], 0.5 µg/mL (≈ 0.604 µM) in experiment [3] and 2 µg/mL (≈ 2.42 µM) in experiment [4].
Turning to `CO[C@H]1/C=C/O[C@@]2(C)Oc3c(C)c(O)c4c(O)c(c(C(CN)CN)c(O)c4c3C2=O)NC(=O)/C(C)=C\C=C\[C@H](C)[C@H](O)[C@@H](C)[C@@H](O)[C@@H](C)[C@H](OC(C)=O)[C@@H]1C` [Compound 8], the MIC in experiment [1] came out at 0.5 µg/mL (≈ 0.649 µM); in experiment [2], 0.25 µg/mL (≈ 0.325 µM); in experiment [3] it was 1 µg/mL (≈ 1.3 µM); in experiment [4] it was 1 µg/mL (≈ 1.3 µM).
As for `CO[C@H]1/C=C/O[C@@]2(C)Oc3c(C)c(O)c4c(O)c(c(CCNCc5ccccc5)c(O)c4c3C2=O)NC(=O)/C(C)=C\C=C\[C@H](C)[C@H](O)[C@@H](C)[C@@H](O)[C@@H](C)[C@H](OC(C)=O)[C@@H]1C` [Compound 9], the MIC in experiment [1] is at most 0.03 µg/mL; in experiment [2], at most 0.03 µg/mL; in experiment [3] it was at most 0.03 µg/mL; in experiment [4] it was 0.12 µg/mL (≈ 0.144 µM).
As to `CO[C@H]1/C=C/O[C@@]2(C)Oc3c(C)c(O)c4c(O)c(c(CCN(C)C)c(O)c4c3C2=O)NC(=O)/C(C)=C\C=C\[C@H](C)[C@H](O)[C@@H](C)[C@@H](O)[C@@H](C)[C@H](OC(C)=O)[C@@H]1C` [Compound 10], the MIC in experiment [1] was at most 0.03 µg/mL; in experiment [2], at most 0.03 µg/mL; in experiment [3], 0.06 µg/mL (≈ 0.078 µM); in experiment [4], 0.25 µg/mL (≈ 0.325 µM).
`CO[C@H]1/C=C/O[C@@]2(C)Oc3c(C)c(O)c4c(O)c(c(CCN5CCCCC5)c(O)c4c3C2=O)NC(=O)/C(C)=C\C=C\[C@H](C)[C@H](O)[C@@H](C)[C@@H](O)[C@@H](C)[C@H](OC(C)=O)[C@@H]1C` [Compound 11]: the minimal inhibitory concentration (MIC) in experiment [1] was 0.06 µg/mL (≈ 0.0742 µM); in experiment [2], at most 0.03 µg/mL; in experiment [3], 0.06 µg/mL (≈ 0.0742 µM); in experiment [4], 0.25 µg/mL (≈ 0.309 µM).
For the compound `CO[C@H]1/C=C/O[C@@]2(C)Oc3c(C)c(O)c4c(O)c(c(CCNCc5ccc(N6CCN(C)CC6)cc5)c(O)c4c3C2=O)NC(=O)/C(C)=C\C=C\[C@H](C)[C@H](O)[C@@H](C)[C@@H](O)[C@@H](C)[C@H](OC(C)=O)[C@@H]1C` [Compound 12], the MIC in experiment [1] was at most 0.03 µg/mL; in experiment [2] it was at most 0.03 µg/mL; in experiment [3], at most 0.03 µg/mL; in experiment [4], 0.5 µg/mL (≈ 0.538 µM).
For `CO[C@H]1/C=C/O[C@@]2(C)Oc3c(C)c(O)c4c(O)c(c(CCNCc5ccc(-n6cccn6)cc5)c(O)c4c3C2=O)NC(=O)/C(C)=C\C=C\[C@H](C)[C@H](O)[C@@H](C)[C@@H](O)[C@@H](C)[C@H](OC(C)=O)[C@@H]1C` [Compound 13], the minimum inhibitory concentration (MIC) was found to be 0.12 µg/mL (≈ 0.134 µM) in experiment [1], 0.12 µg/mL (≈ 0.134 µM) in experiment [2], 0.12 µg/mL (≈ 0.134 µM) in experiment [3] and 0.5 µg/mL (≈ 0.557 µM) in experiment [4].
In the case of `CO[C@H]1/C=C/O[C@@]2(C)Oc3c(C)c(O)c4c(O)c(c(CCNCc5ccc(-c6ncccn6)cc5)c(O)c4c3C2=O)NC(=O)/C(C)=C\C=C\[C@H](C)[C@H](O)[C@@H](C)[C@@H](O)[C@@H](C)[C@H](OC(C)=O)[C@@H]1C` [Compound 14], the minimal inhibitory concentration (MIC) in experiment [1] stood at 1 µg/mL (≈ 1.1 µM); in experiment [2], 0.5 µg/mL (≈ 0.55 µM); in experiment [3], 0.5 µg/mL (≈ 0.55 µM); in experiment [4], 1 µg/mL (≈ 1.1 µM).
Take `CO[C@H]1/C=C/O[C@@]2(C)Oc3c(C)c(O)c4c(O)c(c(CCNCc5ccc(-c6cccnn6)cc5)c(O)c4c3C2=O)NC(=O)/C(C)=C\C=C\[C@H](C)[C@H](O)[C@@H](C)[C@@H](O)[C@@H](C)[C@H](OC(C)=O)[C@@H]1C` [Compound 15]: the MIC worked out at 0.5 µg/mL (≈ 0.55 µM) in experiment [1], 0.25 µg/mL (≈ 0.275 µM) in experiment [2], 0.25 µg/mL (≈ 0.275 µM) in experiment [3] and 1 µg/mL (≈ 1.1 µM) in experiment [4].

What is called MIC is the lowest concentration that inhibits growth of the organism.

For the origin of these results see patent publication US20100029669A1, “3-(SUBSTITUTED ETHYL)-RIFAMYCIN DERIVATIVES USEFUL AS ANTIMICROBIAL AGENTS” (priority 2008, published 2010).
